Source: the supplement of paper PMC7695840
Where “and” joins values, the source holds several entries; their conditions need not be identical. Identical values can stand only once. Counter-ions that a name gives are not always drawn.

Assays:
[1] = system: Staphylococcus aureus MW2 (mecA+); assay: IC50 (growth, competition assay); settings: cefoxitin: subinhibitory
Method in brief: (§1)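 Signals from DsRed (540/590) and GFP (485/520) were scaled on every plate between single-strain control medians, with No Treatment then set to 0.5. The cells were a 1:1 mix of pre-induced fluorescent S. aureus MW2 strains with and without the resistance gene, grown unshaken for 20 h at 37 °C and 90% humidity in LB in 1536-well plates under a subinhibitory drug dose set each day. Each strain's IC50 was defined as the dose halving the No Treatment signal, or the maximal signal.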

[2] = system: Staphylococcus aureus MW2 delta-mecA (mecA-); assay: IC50 (growth, competition assay); settings: cefoxitin: subinhibitory
Method in brief: as §1

SMILES	IC50 ([1]; fluorescent label: DsRed)	IC50 ([1]; fluorescent label: GFP)	IC50 ([2]; fluorescent label: DsRed)	IC50 ([2]; fluorescent label: GFP)
O=C(O[C@@H]1Cc2c(O)cc(O)cc2O[C@@H]1c1ccc(O)c(O)c1)c1cc(O)c(O)c(O)c1 [EPICATECHIN MONOGALLATE]	83.7 µM	140 µM	22.9 µM	12.2 µM
C=CCc1ccccc1OCC(O)CNC1(C)CCC(C(C)(C)NC(=O)CBr)CC1 (stereo unspecified) [Bromoacetyl alprenolol menthane]	14.8 µM	14.2 µM	< 9.85 µM	< 9.85 µM
O=C(O[C@@H]1Cc2c(O)cc(O)cc2O[C@@H]1c1cc(O)c(O)c(O)c1)c1cc(O)c(O)c(O)c1 [(-)-Epigallocatechin gallate]	27.4 µM and 17.3 µM	29.7 µM and 46.5 µM	4.65 µM and < 9.85 µM	3.45 µM and < 9.85 µM
C[C@H](Oc1cc(-c2cnn(C3CCNCC3)c2)cnc1N)c1c(Cl)ccc(F)c1Cl [(S)-crizotinib]	75 µM	101 µM	< 9.85 µM	< 9.85 µM
CCC[C@@H]1C[C@@H](C(=O)N[C@@H]([C@H]2O[C@H](SC)[C@H](O)[C@@H](O)[C@H]2O)[C@@H](C)O)N(C)C1 [LINCOCIN]	< 9.85 µM	< 9.85 µM	< 9.85 µM	< 9.85 µM
C[C@H]1COC2=C1C(=O)C(=O)c1c2ccc2c1CCCC2(C)C [Cryptotanshinone]	12.1 µM	19.2 µM	< 9.85 µM	< 9.85 µM
CN(Cc1cnc2nc(N)nc(N)c2n1)c1ccc(C(=O)N[C@@H](CCC(=O)O)C(=O)O)cc1 [Abitrexate (Methotrexate)]	115 µM	103 µM	36.3 µM	31.5 µM
O=C1Nc2ccc(I)cc2/C1=C/c1cc(Br)c(O)c(Br)c1 [GW5074]	< 9.85 µM	< 9.85 µM	< 9.85 µM	< 9.85 µM
N[C@@H]1CCCN(c2c(/C=C3\SC(=O)NC3=O)cccc2-c2ccccc2)C1 [AZD1208]	111 µM	101 µM	26.7 µM	22.8 µM
Cc1cc(N)c2ccccc2[n+]1CCCCCCCCCC[n+]1c(C)cc(N)c2ccccc21 [Dequalinium Chloride]	< 9.85 µM	11.3 µM	< 9.85 µM	< 9.85 µM
Oc1cc2c(cc1O)CN(C(=S)NCCc1ccc(Cl)cc1)CCC2 [Capsazepine]	59.4 µM	111 µM	34.5 µM	36.1 µM
CC1(C)C=Cc2c(c3c(c4c(=O)c(-c5ccc(O)c(O)c5)coc24)OC(C)(C)CC3)O1 [ISOPOMIFERIN]	27 µM	26.6 µM	11.8 µM	< 9.85 µM
CCCCCCCCCCCCCCC[C@H](O)[C@H](N)CO (racemic) [DL-erythro-Dihydrosphingosine]	15.1 µM	10.4 µM	< 9.85 µM	< 9.85 µM
CC1COc2c(N3CCN(C)CC3)c(F)cc3c(=O)c(C(=O)O)cn1c23 (stereo unspecified) [FLOXIN]	< 9.85 µM	< 9.85 µM	< 9.85 µM	< 9.85 µM
O=C1OC(CN2CCOCC2)CN1/N=C/c1ccc([N+](=O)[O-])o1 (stereo unspecified) [FURALTADONE]	17.8 µM	15.1 µM	11.4 µM	18.5 µM
CC[C@H](C)C[C@H](C)CCCCCCCCC(=O)N[C@H]1C[C@@H](O)[C@@H](NCCN)NC(=O)[C@@H]2[C@@H](O)CCN2C(=O)[C@H]([C@H](O)CCN)NC(=O)[C@H]([C@H](O)[C@@H](O)c2ccc(O)cc2)NC(=O)[C@@H]2C[C@@H](O)CN2C(=O)[C@H]([C@@H](C)O)NC1=O [Caspofungin acetate]	36.7 µM	42.1 µM	14.4 µM	< 9.85 µM
COC1=C2C[C@@H](C)C[C@H](OC)[C@H](O)[C@@H](C)/C=C(\C)[C@H](OC(N)=O)[C@@H](OC)/C=C\C=C(/C)C(=O)NC(=CC1=O)C2=O [Geldanamycin]	< 9.85 µM	< 9.85 µM	< 9.85 µM	< 9.85 µM
O=c1c2ccccc2[se]n1-c1ccccc1 [EBSELEN]	< 9.85 µM	< 9.85 µM	< 9.85 µM	< 9.85 µM
C[C@H](CCC(=O)O)[C@H]1CC[C@H]2[C@@H]3[C@H](O)C[C@@H]4C[C@H](O)CC[C@]4(C)[C@H]3CC[C@]12C [Chenodeoxycholic acid]	54 µM	91.4 µM	14.8 µM	7.91 µM
CC(=O)NC[C@H]1CN(c2ccc(N3CCOCC3)c(F)c2)C(=O)O1 [ZYVOX]	< 9.85 µM	< 9.85 µM	< 9.85 µM	< 9.85 µM
C[C@@H](O)[C@H]1C(=O)N2C(C(=O)O)=C(S[C@@H]3CN[C@H](C(=O)N(C)C)C3)[C@H](C)[C@H]12 [MERREM]	89.8 µM	98.4 µM	16 µM	11.8 µM
CCn1cc(C(=O)O)c(=O)c2ccc(C)nc21 [Nalidixic acid sodium]	34 µM	29.8 µM	17.2 µM	16.2 µM
CC(=O)O[C@H]1C[C@@]2(C)[C@@H](C[C@@H](O)[C@H]3[C@@]4(C)CC[C@@H](O)[C@@H](C)[C@@H]4CC[C@@]32C)/C1=C(\CCC=C(C)C)C(=O)O [Fusidic acid sodium]	< 9.85 µM	< 9.85 µM	< 9.85 µM	< 9.85 µM
CN[C@H]1CC[C@@H](c2ccc(Cl)c(Cl)c2)c2ccccc21 [Sertraline hydrochloride]	96.4 µM	77.9 µM	22.8 µM	33.7 µM
N#CC(c1ccc(Cl)cc1)c1c(Cl)cc(-n2ncc(=O)[nH]c2=O)cc1Cl (stereo unspecified) [CLINACOX]	15.2 µM	23 µM	< 9.85 µM	< 9.85 µM
O=C(O)Cc1cccc(OCCCN(Cc2cccc(C(F)(F)F)c2Cl)CC(c2ccccc2)c2ccccc2)c1 [GW3965 HCl]	< 9.85 µM	< 9.85 µM	< 9.85 µM	< 9.85 µM
C[C@H]1O[C@@H](n2cc(F)c(=O)[nH]c2=O)[C@H](O)[C@@H]1O [Doxifluridine]	3.93 µM	11.1 µM	0.661 µM	< 0.498 µM
O=C(O)c1cn(-c2ccc(F)cc2)c2cc(N3CCNCC3)c(F)cc2c1=O [Sarafloxacin HCl]	< 0.498 µM	< 0.498 µM	< 0.498 µM	< 0.498 µM
CN[C@@H]1C[C@@H](c2ccc(Cl)c(Cl)c2)c2ccccc21 [Indatraline hydrochloride]	70.1 µM	98.4 µM	36.2 µM	52.3 µM
